One assay has as its system HIV-1. Nature of the assay: p24 antigen ELISA of supernatants from induced HIV-1 latently infected cells (ACH2, 8E5, U1). As to conditions: for inhibition of HIV-1 replication (p24 in medium): ACH2, 8E5, U1 cells induced with TNF-α (10 ng/ml, 2 h), 10 μM drug, 5 days; for p24 antigen release, time course: ACH2 cells, days 2, 4, 6. Type of assay: cell-based. The procedure: We chose HIV-1 stably integrated cells, lymphocytic ACH2 and 8E5 cell lines, as well as monocytic U1 cells (and their uninfected parental counterparts CEM and U937, respectively) for our initial studies, since viral transcription could be activated and scored through signals, such as Tat, TNF-α or phorbol myristate acetate (PMA) and PHA. We first activated viruses in these cells with TNF-α (10 ng/ml) at 37° C. for 2 h, followed by washing, and then we incubated cells with 10 μM concentrations of each drug. […] We next examined the effect of all three drugs on primary HIV-1 field isolates of SI and NSI strains. Activated PBMC were infected with two independent HIV-1 viral strains of SI (UG/92/029, subtype A envelope) and NSI (THA/92/001, subtype E envelope).
Five days later, the supernatants were collected, and the amount of newly synthesized HIV-1 was measured by p24 antigen assay. (B) Purified Tat (300 μg) was electroporated into ACH2, 8E5, and U1 cells and subsequently treated with various drugs for 5 days. […] Seven days later samples were collected and used for p19 gag ELISA. (E) PHA-activated PBMC (5×10^6) were infected with HIV-1 either SI (UG/92/029 Uganda strain, subtype A envelope) or NSI (THA/92/001, Thailand strain, subtype E envelope) strains. Unadsorbed viruses were washed after 6 h, and cells were cultured in fresh media with various cdk inhibitors (10 μM). Samples were collected every sixth day and used for p24 gag ELISA assay.
At days 2, 4, and 6, the supernatants were collected, and the released HIV-1 particles were measured by using a p24 antigen ELISA assay. (B) Twenty micrograms of total RNA was separated on an RNA-formaldehyde-agarose gel, transferred, and probed with full-length labeled HIV-1 genome RNA. The hybridized genomic RNA, singly spliced (structural), and doubly spliced (regulatory) RNAs were exposed and counted by using Molecular Dynamic PhosphorImager software.
Supernatants from the infected PBMC were collected and used directly for the p24 antigen assay. The p24 gag antigen level was analyzed by using the HIVAG-1 Monoclonal Antibody Kit (Abbott Laboratories, Diagnostics Division). The HTLV-1 p19 core antigen ELISA kit was from Retro-Tek (Cellular Products).
In general terms: ELISA stands for enzyme-linked immunosorbent assay.

Assay [1] concerns U937 uninfected monocytic parental cell line. Briefly: Cell cycle analysis (PI staining, FACS) of uninfected U937 cells. As to conditions: U937 cells (FIG. 2C).
For assay [2], the system named is U1 cells (latently HIV-1 infected). Briefly: Cell cycle analysis (PI staining, FACS) of HIV-1-infected U1 cells. As to conditions: U1 cells plus TNF-α (FIG. 2C).
The target in a further assay is cdk6 (Homo sapiens, UniProt Q00534). As to conditions: cited from earlier work.
The test system of assay [3] is HIV-1 LTR (Tat transactivation). Briefly: HIV-1 LTR-CAT reporter, Tat-activated transcription in CEM cells. In kind it is cell-based. As to conditions: LTR-CAT plus pcTat (CMV-driven Tat). An excerpt:
Activated transcription by Tat was also examined in CEM cells using the LTR-CAT reporter and pcTat (CMV-driven Tat). […] .
(§1) FIG. 3 discloses inhibition of HIV-1 basal and activated transcription by cdk inhibitors. […] The graphs at the bottom of the figure represent the effect of various concentrations of general cell cycle inhibitors (hydroxyurea and nocodazole) on CEM cells. (B) Inhibition of activated transcription in CEM cells was examined using transfected HIV-1 LTR-CAT, together with pcTat plasmid. (C) Experiment similar experiment to that in panel B, except that pcTat plasmid was replaced with E. coli-expressed and purified Tat protein
Lymphocyte CEM (12D7) cells were grown to mid-log phase and were processed for protein electroporation according to a previously published procedure (24). Only one modification was introduced, in which the cells were electroporated at 230 V and plated in 10 ml of complete RPMI 1640 medium for 18 h prior to harvest and chloramphenicol acetyl transferase (CAT) assay. […] Cells were freeze-thawed three times with intermittent vortexing and then incubated for 3 min at 68° C., followed by centrifugation. Supernatants were transferred to 1.5-ml Eppendorf tubes and centrifuged, and the supernatants were used for the determination of protein concentration. CAT assays were performed with 2 μg of protein according to the method of Gorman et al. (15).

Another assay deals with HIV-1 LTR. Nature of the assay: HIV-1 LTR-CAT reporter, basal transcription in CEM cells. Type of assay: cell-based. As to conditions: ca. 10 μM, 20 h.
Text: We next sought to determine whether the inhibition of HIV-1 transcription, observed above, could be mediated specifically by cdk inhibitors or by general cell cycle inhibitors. To distinguish between the two possibilities, we performed transfection experiments with all three cdk inhibitors tested above and two other well-established cell cycle inhibitors, namely, hydroxyurea and nocodazole. Hydroxyurea blocks DNA replication by inhibiting ribonucleotide reductase and thus arrests cell cycle progression at the G1/S checkpoint, while nocodazole blocks at G2/M by promoting tubulin depolymerization. […] Therefore, the basal transcription of HIV-1 was inhibited by purine analogs and not general cell cycle inhibitors.
as §1
Lymphocyte CEM (12D7) cells were grown to mid-log phase and were processed for protein electroporation according to a previously published procedure (24). […]

The target in a further assay is cdk4 (Homo sapiens, UniProt P11802). As to conditions: cited from earlier work.
Another assay has as its system HTLV-1. Briefly: p19 gag ELISA of TNF-α-treated HTLV-1-infected MT-2 cells. In kind it is cell-based. The settings on record: TNF-α 2 h, then drug, 7 days.

Entries after “also recorded” stand apart in the source; their conditions may differ.

Sequence of cdk4 (P11802 whole entry, species assumed): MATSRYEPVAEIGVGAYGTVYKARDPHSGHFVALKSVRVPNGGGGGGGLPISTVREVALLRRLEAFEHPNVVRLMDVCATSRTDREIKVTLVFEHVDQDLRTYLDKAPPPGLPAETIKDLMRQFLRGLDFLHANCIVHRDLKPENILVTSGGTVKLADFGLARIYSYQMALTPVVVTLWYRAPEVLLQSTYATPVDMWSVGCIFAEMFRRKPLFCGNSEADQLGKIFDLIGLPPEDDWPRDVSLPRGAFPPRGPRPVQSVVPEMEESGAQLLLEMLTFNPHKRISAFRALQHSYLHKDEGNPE
Sequence of cdk4 (P24385 whole entry partner, species assumed): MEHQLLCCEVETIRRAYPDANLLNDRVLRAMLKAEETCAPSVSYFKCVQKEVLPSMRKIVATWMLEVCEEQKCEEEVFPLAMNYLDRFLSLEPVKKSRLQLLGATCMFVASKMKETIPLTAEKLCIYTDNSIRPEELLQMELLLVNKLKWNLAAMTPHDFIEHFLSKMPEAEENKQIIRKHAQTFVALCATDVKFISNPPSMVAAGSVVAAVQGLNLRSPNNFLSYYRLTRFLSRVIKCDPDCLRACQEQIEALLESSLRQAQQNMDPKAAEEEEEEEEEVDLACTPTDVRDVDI
Sequence of cdk6 (Q00534 whole entry): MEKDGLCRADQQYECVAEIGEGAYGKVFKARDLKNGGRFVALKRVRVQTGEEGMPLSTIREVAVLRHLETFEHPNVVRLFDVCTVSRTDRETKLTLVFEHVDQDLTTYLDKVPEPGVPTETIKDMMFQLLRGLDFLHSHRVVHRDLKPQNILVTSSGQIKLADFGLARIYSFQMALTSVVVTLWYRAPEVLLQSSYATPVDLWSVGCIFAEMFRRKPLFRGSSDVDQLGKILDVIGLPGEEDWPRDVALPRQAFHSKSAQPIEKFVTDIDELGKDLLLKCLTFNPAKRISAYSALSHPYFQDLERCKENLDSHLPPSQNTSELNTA
Sequence of cdk6 (P30279 whole entry partner): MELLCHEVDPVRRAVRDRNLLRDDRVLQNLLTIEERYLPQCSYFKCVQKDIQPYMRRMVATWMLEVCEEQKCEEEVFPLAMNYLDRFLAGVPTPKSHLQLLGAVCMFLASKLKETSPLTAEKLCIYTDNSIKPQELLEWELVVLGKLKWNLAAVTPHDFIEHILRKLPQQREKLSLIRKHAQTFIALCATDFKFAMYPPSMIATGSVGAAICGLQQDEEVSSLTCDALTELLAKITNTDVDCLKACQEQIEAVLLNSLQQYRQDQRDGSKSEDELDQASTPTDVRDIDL

As for Roscovitine, in the assay with HIV-1, the “inhibition of HIV-1 replication (p24 in medium)” value is listed as “most effective”. For the same compound, the “inhibition of HIV-1 replication (p24), Tat-treated cells” value with HIV-1 (ACH2, 8E5, U1 electroporated with purified Tat, drugs for 5 days) was “best inhibited”. For the same compound, the “p24 antigen release, time course” value in the assay with HIV-1 (1 μM) is “no obvious decrease of p24 was apparent”; with HIV-1 (10 μM), “only low levels of viral p24 antigens were detected”. Moreover, in assay [1], the “apoptosis in uninfected parental cells” value is on record as “no apparent apoptosis”. Besides, the “apoptosis in U1 cells” value in assay [2] was “abundance of the apoptotic population”. In addition, the “reported inhibition of cdk6” value on cdk6 is given as “not cdk4 or -6”. Moreover, the “inhibition of Tat transactivation (CAT activity)” value in assay [3] was “impaired; also recorded: inhibited activated transcription better than the other two analogs”. Besides, the “inhibition of HIV-1 basal transcription (CAT activity)” value in the assay with HIV-1 LTR is on record as “dramatic inhibition”. Further, the “reported inhibition of cdk4” value at cdk4 is given as “not cdk4 or -6”.
Turning to `CC(C)[C@H](CO)Nc1nc(Nc2cccc(Cl)c2)c2ncn(C(C)C)c2n1` [Purvalanol A], the “inhibition of HIV-1 replication (p24 in medium)” value in the assay with HIV-1 is on record as “most effective”. In assay [3], the “inhibition of Tat transactivation (CAT activity)” value is “impaired”. Further, in the assay on HTLV-1, the “inhibition of HTLV-1 replication (p19 gag)” value was “inhibited HTLV-1 replication”. In addition, the “inhibition of HIV-1 basal transcription (CAT activity)” value in the assay on HIV-1 LTR is given as “dramatic inhibition”.

These data come from patent US20030229105A1, “Treatment of autoimmune disorders” (Cyclacel Limited, priority 2002, published 2003).
